# Laboratory results taken from patent US20010049373A1, “Materials and methods for killing nematodes and nematode eggs” (priority 2000, published 2001).
# Several values for one entry are separate records, joined by “and”; a condition that tells them apart may be missing. Equal entries are not always repeated.
# Key:
# [1] = test system: gastrointestinal nematodes; assay: Sheep Test I: nematode recovery at necropsy, controlled anthelmintic test efficacy; format: in vivo; settings: for Mean Ct, Abomasum Haemonchus / Mean Ct, Abomasum ostertagia / Mean Ct, Small Intest. Nematodirus / Mean Ct, Small Intestine Trichostrongylus: group mean; for Mean Ct, Abomasum Haemonchus / Mean Ct, Abomasum ostertagia / Mean Ct, Small Intest. Nematodirus / Mean Ct, Small Intestine Trichostrongylus / Worm Counts, Abomasum Haemonchus / Worm Counts, Abomasum ostertagia / Worm Counts, Small Intest. Nematodirus / Worm Counts, Small Intestine Trichostrongylus: necropsy seven days following treatment; for Worm Counts, Abomasum Haemonchus / Worm Counts, Abomasum ostertagia / Worm Counts, Small Intest. Nematodirus / Worm Counts, Small Intestine Trichostrongylus: individual sheep
# Protocol: Sheep naturally infected with a variety of gastrointestinal nematodes are purchased from local sources and are transported to the test site. The animals are housed in a manner to preclude further infection by nematode larvae. The animals are evaluated for the presence of adequate nematode burdens by performing a standard fecal egg per gram (EPG) count. Eggs are differentiated into the following groups: trichostrongyle (strongyle), Strongyloides, Trichuris, or Nematodinis. Only sheep judged by the study parasitologist to have adequate nematode infections are retained as test subjects. The sheep are fed good quality hay (no concentrated rations) and water ad libitum. Following a five-day acclimation period, the sheep are randomly assigned by EPG count into treatment groups which include non-treated Negative control (placebo); […] The first replicate of 10 animals is randomly assigned to groups 1-10; the second replicate of 10 animals is randomly assigned to groups 1-10; and the third replicate of 10 animals is randomly assigned to groups 1-10. Thus 10 groups of 3 animals each is created. The placebo (DMSO), the commercially available drug, and the test anthelmintic compounds are administered in a 3 ml volume by subcutaneous injection using a sterile syringe fitted with a proper needle. The animal is adequately immobilized for injection of the placebo, commercially available drug, or test anthelmintic compound. Seven days following treatment the sheep are humanely slaughtered in accordance with the Guide for the Care and Use of Laboratory Animals (DHEW Publication No. 86-23). Necropsy procedures are according to Zimmerman Research SOP # […].99.01, Necropsy for Helminth Recovery, specifically for gastrointestinal nematodes. Fecal samples are taken for EPG counts during the sample collection process on this day. All animals are necropsied, but only the animals from the experimental treatment groups that have a significant egg count reduction on day 5 or day 7 will have intestinal material collected for nematode recovery and identification. Nematodes are recovered, identified, and enumerated according to Zimmerman Research SOP # […].99.01. All individuals performing nematode recoveries are blinded to treatment versus control animals. Preliminary estimates of total nematodes recovered from each gut sample are provided prior to identification and enumerations by the study parasitologist. At the discretion of the study parasitologist, seven days after the drug administration fecal egg counts are performed and all animals showing 90% or better trichostrongylid egg reduction will be slaughtered using humane methods recommended by the AVMA. The neck blood vessels are severed and after the animal is completely exsanguinated, the abdomen are opened. The abomasum, the small and large intestines are tied at the omasal and pyloric openings, the duodenum, the end of the small intestine and at the end of the large intestine. Each section is transferred in a separate bucket containing warm water and is slit open and thoroughly washed. The epithelium is inspected before it is removed. The thus prepared washings are saved in gallon jars. An appropriate preservative is added. If preservative is not available, all the intestinal washing should kept in a refrigerator. These washings are passed through a 100-mesh sieve (pore size […]), and the residue is examined for the presence of worms under a dissecting microscope, Lugol's solution may be used to stain the worms. All worms are picked up counted and identified as to the species. An effort should be made to recover any immature forms present.
# [2] = test system: gastrointestinal nematodes; assay: Sheep Test II: nematode recovery at necropsy, controlled test efficacy; format: in vivo; settings: for Mean Ct., Abomasum Haemonchus / Mean Ct., Abomasum Ostertagia / Mean Ct., Large Intest. Trichuris / Mean Ct., Small Intest. Nematodirus / Mean Ct., Small Intestine Trichostrongylus: group mean; for Mean Ct., Abomasum Haemonchus / Mean Ct., Abomasum Ostertagia / Mean Ct., Large Intest. Trichuris / Mean Ct., Small Intest. Nematodirus / Mean Ct., Small Intestine Trichostrongylus / Worm Counts, Abomasum Haemonchus / Worm Counts, Abomasum ostertagia / Worm Counts, Large Intest. Trichuris / Worm Counts, Small Intest. Nematodirus / Worm Counts, Small Intestine Trichostrongylus: necropsy seven days following treatment; for Worm Counts, Abomasum Haemonchus / Worm Counts, Abomasum ostertagia / Worm Counts, Large Intest. Trichuris / Worm Counts, Small Intest. Nematodirus / Worm Counts, Small Intestine Trichostrongylus: individual sheep
# Protocol: Sheep naturally infected with a variety of gastrointestinal nematodes are purchased from local sources and are transported to the test site. The animals are housed in a manner to preclude further infection by nematode larvae. The animals are evaluated for the presence of adequate nematode burdens by performing a standard fecal egg per gram (EPG) count. Eggs are differentiated into the following groups: trichostrongyle (strongyle), Strongyloides, Trichuris, or Nematodiris. Only sheep judged by the study parasitologist to have adequate nematode infections are retained as test subjects. The sheep are fed good quality hay (no concentrated rations) and water ad libitum. Following a five day acclimation period, the sheep are randomly assigned by EPG count into the following treatment groups: Groups 1-9, various anthelmintic compounds of the present invention (test compound) dissolved in DMSO: […] Group 11, non-treated Negative control (DMSO only). The first replicate of 1 I animals is randomly assigned to groups 1-1; the second replicate of 11 animals is randomly assigned to groups 1-11; and the third replicate of 11 animals is randomly assigned to groups 1-1. Thus 11 groups of 3 animals each are created. The placebo (DMSO), the commercially available drug, and the test anthelmintic compounds are administered in a 3 ml volume of DMSO by subcutaneous injection using a sterile syringe fitted with a sterile needle. The site of injection is clipped and swabbed with alcohol prior to injection. The animal is adequately immobilized for injection of the placebo, commercially available drug, or experimental compound. Seven days following treatment, all the sheep are weighed and humanely slaughtered in accordance with the Guide for the Care and Use of Laboratory Animals (DHEW Publication No. 86-23). Necropsy procedures are according to Zimmerman Research SOP # […].00.01, Necropsy for Helminth Recovery, specifically for gastrointestinal nematodes. Fecal samples are taken for EPG counts during the sample collection process on this day. Nematodes are recovered, identified, and enumerated according to Zimmerman Research SOP # […].00.01. All individuals performing nematode recoveries are blinded to treatment versus control animals.
# [3] = Ivermectin 200 mcg/kg, vs negative control mean count
# [4] = Ivermectin 200 mcg/kg, controlled test procedure
# [5] = AKC 109 1.4 mg/kg, vs negative control mean count
compound,measurement,setting,value
"22,23-dihydroavermectin B1 [ivermectin]","% Efficacy, Abomasum Haemonchus",[1]; [3],100%
same,"% Efficacy, Abomasum ostertagia",[1]; [3],100%
same,"% Efficacy, Small Intest. Nematodirus",[1]; [3],100%
same,"% Efficacy, Small Intestine Trichostrongylus",[1]; [3],100%
same,"Mean Ct, Abomasum Haemonchus",[1]; Ivermectin 200 mcg/kg,0
same,"Mean Ct, Abomasum ostertagia",[1]; Ivermectin 200 mcg/kg,0
same,"Mean Ct, Small Intest. Nematodirus",[1]; Ivermectin 200 mcg/kg,0
same,"Mean Ct, Small Intestine Trichostrongylus",[1]; Ivermectin 200 mcg/kg,0
same,"Worm Counts, Abomasum Haemonchus",[1]; Ivermectin 200 mcg/kg,0
same,"Worm Counts, Abomasum ostertagia",[1]; Ivermectin 200 mcg/kg,0
same,"Worm Counts, Small Intest. Nematodirus",[1]; Ivermectin 200 mcg/kg,0
same,"Worm Counts, Small Intestine Trichostrongylus",[1]; Ivermectin 200 mcg/kg,0
same,"% Efficacy, Abomasum Haemonchus",[2]; [4],86%
same,"% Efficacy, Abomasum ostertagia",[2]; [4],100%
same,"% Efficacy, Small Intest. Nematodirus",[2]; [4],98%
same,"% Efficacy, Small Intestine Trichostrongylus",[2]; [4],100%
same,"Mean Ct., Abomasum Haemonchus",[2]; Ivermectin 200 mcg/kg,7
same,"Mean Ct., Abomasum Ostertagia",[2]; Ivermectin 200 mcg/kg,0
same,"Mean Ct., Large Intest. Trichuris",[2]; Ivermectin 200 mcg/kg,0
same,"Mean Ct., Small Intest. Nematodirus",[2]; Ivermectin 200 mcg/kg,67
same,"Mean Ct., Small Intestine Trichostrongylus",[2]; Ivermectin 200 mcg/kg,0
same,"Worm Counts, Abomasum Haemonchus",[2]; Ivermectin 200 mcg/kg,0 (2×) and 20
same,"Worm Counts, Abomasum ostertagia",[2]; Ivermectin 200 mcg/kg,0
same,"Worm Counts, Large Intest. Trichuris",[2]; Ivermectin 200 mcg/kg,0
same,"Worm Counts, Small Intest. Nematodirus",[2]; Ivermectin 200 mcg/kg,100 (2×) and 0
same,"Worm Counts, Small Intestine Trichostrongylus",[2]; Ivermectin 200 mcg/kg,0
CCC1CCCCN1c1cc(Oc2ccc3oc4ccccc4c3c2)ncn1 (centres unmarked) [AKC 109],"% Efficacy, Abomasum ostertagia",[1]; [5],98%
same,"% Efficacy, Small Intest. Nematodirus",[1]; [5],57%
same,"Mean Ct, Abomasum Haemonchus",[1]; AKC 109 1.4 mg/kg,507
same,"Mean Ct, Abomasum ostertagia",[1]; AKC 109 1.4 mg/kg,7
same,"Mean Ct, Small Intest. Nematodirus",[1]; AKC 109 1.4 mg/kg,353
same,"Mean Ct, Small Intestine Trichostrongylus",[1]; AKC 109 1.4 mg/kg,233
same,"Worm Counts, Abomasum Haemonchus","[1]; AKC 109 1.4 mg/kg, 1.4 mg/kg",20 and 1500 and 0
same,"Worm Counts, Abomasum ostertagia","[1]; AKC 109 1.4 mg/kg, 1.4 mg/kg",20 and 0 (2×)
same,"Worm Counts, Small Intest. Nematodirus","[1]; AKC 109 1.4 mg/kg, 1.4 mg/kg",100 and 500 and 460
same,"Worm Counts, Small Intestine Trichostrongylus","[1]; AKC 109 1.4 mg/kg, 1.4 mg/kg",540 and 160 and 0
same,"% Efficacy, Abomasum Haemonchus","[2]; AKC 109 .8 mg/kg, controlled test procedure",100%
same,"Mean Ct., Abomasum Haemonchus",[2]; AKC 109 .8 mg/kg,0
same,"Mean Ct., Abomasum Ostertagia",[2]; AKC 109 .8 mg/kg,690
same,"Mean Ct., Large Intest. Trichuris",[2]; AKC 109 .8 mg/kg,3
same,"Mean Ct., Small Intest. Nematodirus",[2]; AKC 109 .8 mg/kg,7120
same,"Mean Ct., Small Intestine Trichostrongylus",[2]; AKC 109 .8 mg/kg,130
same,"Worm Counts, Abomasum Haemonchus",[2]; AKC 109 .8 mg/kg,0
same,"Worm Counts, Abomasum ostertagia",[2]; AKC 109 .8 mg/kg,1100 and 280
same,"Worm Counts, Large Intest. Trichuris",[2]; AKC 109 .8 mg/kg,5 and 0
same,"Worm Counts, Small Intest. Nematodirus",[2]; AKC 109 .8 mg/kg,12020 and 2220
same,"Worm Counts, Small Intestine Trichostrongylus",[2]; AKC 109 .8 mg/kg,240 and 20
